# Measured values: PubChem BioAssay AID179 (DTP/NCI, 2004)
# pEC50, pIC50: −log10 of the molar value. Where “and” joins values, the source holds several entries; their conditions need not be identical. Equal entries are not always repeated. Calls of active or inactive are those of the source.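 Rule for the calls: active = compounds giving half or more protection of infected cells from virus-caused growth loss, again on retest; inactive = the rest.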
# Tested on: CEM cells HIV-1 protection, formazan growth assay
# Assay: NCI AIDS Antiviral Assay
# Settings: for pIC50: measured here: growth of uninfected CEM cells
# Outline: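 CEM (human) cells, HIV-1 infected vs uninfected, 5-point dosing, formazan growth read-out. Retest threshold 50% protection.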
Structure (SMILES),pEC50,pIC50,outcome
CCOc1cc2c(c(OCC)c1O)CC[C@@H]1[C@@H]2CC[C@]2(C)[C@@H](O)CC[C@@H]12,< 5.70,6.11,
CCC(COC(=O)CC[C@@H](NC(=O)C(C)NC(=O)C(C)OC1C(O)C(CO)OC(OCc2ccccc2)C1NC(C)=O)C(N)=O)NC1c2ccccc2Nc2cccc([N+](=O)[O-])c21 (stereo not given in full),< 3.70,3.84,
CC1=C(S(=O)c2ccc(C)cc2)CCC2(CCCCO2)O1 (stereo not given),< 3.70,3.97,
COc1ccc(N=CN(C)C)c(C)c1,< 3.70,5.40,
c1ccc(N=c2sc3ccccc3sc2=Nc2ccccc2)cc1,< 3.70,5.51,
CCN(CC)c1ccc2c(c1)Oc1cc(N(CC)CC)ccc1C2c1ccccc1C(=O)O,< 3.70,< 3.70,
CC(C)c1c(O[Si](C(C)C)(C(C)C)C(C)C)c2c3c(ccc4c3c1OC4(C)C)C(C)CC2 (stereo not given),< 3.70,< 3.70,
C#CCn1c2c(c3ccccc3c1=O)C(=O)c1ccccc1-2,< 4.20,< 4.20,
Cc1nnc(NC2=NCCO2)s1,< 3.70,< 3.70,
N#C/C(=C\c1ccc(Cl)cc1)C(=O)c1ccccc1,< 4.08,< 4.08,
CC(=O)OC1CC2C(C)(C)CCC[C@]2(C=O)C2=C1C(O)=C(C(C)C)C(=O)C2=O (stereo not given in full),,,inactive
O=P1(Cc2ccccc2)OC2CC(Cl)CC(C2)O1 (stereo not given),< 3.90,< 3.90,
COc1cccc(NC(=S)/C(=C(/[O-])c2ccc(C)cc2)[n+]2ccccc2)c1,< 3.70,< 3.70,
N#CC1=C(S)N(C2OC(CO)C(O)C(O)C2O)C(c2ccccc2)=CC1c1ccccc1 (stereo not given),< 3.70,4.29,
CC1OC(n2cc(I)c(=O)[nH]c2=O)C=CC1=O (stereo not given),< 3.46,5.67,
O=c1c(O)c(-c2ccc(O)cc2)oc2cc(O)cc(O)c12,< 4.01,4.29,
CO/N=C(\C(=O)Nc1cncs1)c1csc(N)n1,< 3.70,< 3.70,
CC(=O)NC(=O)c1ccccc1O,< 3.14,3.41,
C(=C\c1ccc2ccccc2n1)/c1ccc2c(c1)OCO2,< 3.70,< 3.70,
CC1CN(c2ccc(Cl)cc2)CC(C)(C)OC(=O)O1 (stereo not given),< 3.48,4.67,
Nc1c(-c2nc3ccccc3[nH]2)sc(=S)n1-c1ccccc1,< 4.94,< 4.94,
COc1ccc2nc3ccc(OC)cc3c(SCc3ccc([N+](=O)[O-])cc3)c2c1,< 3.70,< 3.70,

Structure (SMILES),pEC50,pIC50,outcome
Cc1nc(Nc2ccc(Cl)cc2)sc1C(=O)NNC(=S)NN,< 4.08,4.48,
CCOC(=O)CC1(C(=O)OCC)c2[nH]c3ccccc3c2CCN1Cc1ccccc1 (stereo not given),< 4.16,4.76,
OC[C@H]1S[C@H](c2ccccc2)C[C@H]1O,< 3.70,< 3.70,
CCOC(=O)C(C(=O)OCC)=S1c2ccccc2Sc2ccccc21,< 3.70,< 3.70,
OC1/C(=C/c2ccccc2)CNC/C1=C\c1ccccc1 (stereo not given),< 3.89,4.10,
CCOc1ccccc1NC(=O)C1=C(C)NC(C)=C(C(=O)Nc2ccccc2OCC)C1c1ccc2c(c1)OCO2,< 4.89,< 4.89,
O=C(Nc1ccc(F)cc1)N(C1CCCCC1)C1CCCCC1,< 3.70,4.09,
COc1ccc(/C(C#N)=C/c2ccc(N(C)CCC#N)cc2)cc1,< 3.70,5.50,
Cn1c2ccccc2c2nnc(N/N=C/c3ccccn3)nc21,< 3.70,6.94,
CN1CCc2cc(O)c3cc2C1Cc1ccc(cc1)Oc1cc(ccc1O)CC1c2c(cc4c(c2O3)OCO4)CCN1C (stereo not given),,,inactive
Cc1[nH]c(N)nc(=S)c1CCC(=O)O,< 3.70,< 3.70,
C=C(C)C1CCC2(C)OC2C1 (stereo not given),< 3.70,< 3.70,
COc1ccc(NC(=S)NNC(=O)c2nsc3ccccc23)cc1,< 3.86,4.72,
Cn1c2cccc3nnc4cccc(c4c32)n1C,,,inactive
OC(c1ccc(-c2ccccc2)cc1)C(F)(F)c1nc2ccccc2o1 (stereo not given),< 3.70,4.46,
CC(C)CCCC(C)[C@H]1CC[C@H]2[C@@H]3CC[C@H]4C[C@@H](CCC=C(c5cc(Cl)c(OCc6cccc(C(=O)O)c6)c(C(=O)O)c5)c5cc(Cl)c(OCc6cccc(C(=O)O)c6)c(C(=O)O)c5)CC[C@]4(C)[C@H]3CC[C@]12C (stereo not given in full),5.26 and 5.75,< 3.70,
Brc1ccc(N=Nc2ccc3ccccc3n2)cc1,< 4.03,4.04,
N[C@@H](Cc1ccccc1)C(=O)N1CCC[C@@H]1P(=O)(Oc1ccccc1)Oc1ccccc1,,,inactive
COC(=O)/C(C#N)=C(\Nc1ccccc1)N1CCOCC1,< 3.70,< 3.70,
CN=C(NCCCN1CCOCC1)c1ccc(NC(=O)c2ccc(C(=O)Nc3ccc(C(=NC)NCCCN4CCOCC4)cc3)cc2)cc1,< 3.70,3.92,
CC(=O)[O-].CC(=O)[O-].O=C(N/N=C/c1cc(Cl)cc(Cl)c1O)c1ccncc1.[Ni+2],,,inactive
COc1ccc(/C(C)=N\N)cc1,< 3.70,< 3.70,

Structure (SMILES),pEC50,pIC50,outcome
Cc1cn(C2CC(N(O)Cc3ccccc3)C(CO[Si](C)(C)C(C)(C)C)O2)c(=O)[nH]c1=O (stereo not given),< 3.70,4.92 and 4.44,
O=C1CCCC(=O)N2c3ccc(cc3)CSCCSCc3ccc(cc3)N12,,,inactive
CC(C)=CCC12Cc3ccc(O)cc3C(C(C)CN1)C2C (stereo not given),< 3.70,< 3.70,
COc1cc(Nc2c3ccccc3nc3ccccc23)ccc1NS(C)(=O)=O,< 3.70,5.62,
Nc1nc2ncn(O)c2c(=O)[nH]1,< 3.95,6.46,
CC(=O)OC1COC(Nn2c(=O)[nH]c3ccccc3c2=O)C(OC(C)=O)C1OC(C)=O (stereo not given),< 3.70,< 3.70,
CC(=O)OCCOCN1C(=O)CC(=O)NC1=O,< 3.70,< 3.70,
CCOC(=O)C1CC2OC2CC1C(=O)OCC (stereo not given),< 3.70,< 3.70,
CC(=O)N/N=C(/C)c1cccs1,< 3.70,< 3.70,
Cc1ccc2oc(=O)c(-c3ccccc3)nc2c1,< 4.66,< 4.66,
Nc1ccc(C2=Nc3ccccc3SC(c3ccccc3O)C2)cc1 (stereo not given),< 4.96,< 4.96,
CN(C)CCCNC(=O)c1cc(NC(=O)c2cc(NC(=O)c3cc(NC(=O)c4cccc(C(=O)Nc5cc(C(=O)Nc6cc(C(=O)Nc7cc(C(=O)NCCCN(C)C)n(C)c7)n(C)c6)n(C)c5)c4)cn3C)cn2C)cn1C,< 4.00,< 4.00,
O=C(Nc1cccc2c(OC(=O)C(Cl)Cl)c(N=Nc3ccc(S(=O)(=O)Nc4nccs4)cc3)cc(N=Nc3ccc(S(=O)(=O)Nc4nccs4)cc3)c12)C(Cl)Cl (tested in a mixture with another compound),4.33 and < 4.30,,inactive
O=C(C=Nc1ccccc1C(=O)[O-])c1ccco1.O=C(C=Nc1ccccc1C(=O)[O-])c1ccco1.[Cu+2],< 5.72,< 5.72,
O=C(Nc1cc(Cl)c(Cl)cc1Cl)C(=O)C(C(=O)c1ccccc1)C1OC(=O)c2ccccc21 (stereo not given),,,inactive
COc1ccccc1NC(=O)CC(=O)N1N=C(C)C(N=Nc2ccc(C(=O)O)cc2)C1=O (stereo not given),< 3.70,< 3.70,
CC1=NC(C(C)C)C(=O)O1 (stereo not given),< 3.05,< 3.05,
c1ccc(Nn2c(CCCCCCCCc3nnc(COc4ccccc4)n3Nc3ccccc3)nnc2COc2ccccc2)cc1,< 5.70,< 5.70,
O=NC1C2C=CC(C2)C1Cl (stereo not given),< 3.70,< 3.70,
Cc1ccccc1NC(=O)C(=O)C(C#N)c1ccc(Cl)cc1 (stereo not given),< 4.92,< 4.92,
O=C(CCCCCCCCc1ccc(O)cc1)c1c(O)cccc1O,,,inactive
Cc1nc(C)c(N2CCN(C#N)CC2)c(=O)[nH]1,< 3.70,< 3.70,

Structure (SMILES),pEC50,pIC50,outcome
C=CCSS/C=C/CS(=O)CC=C (stereo not given),< 4.09,6.16,
COC(=O)C1=CC(=O)C(C(=O)Nc2ccc(OC)cc2)C(c2ccccc2)O1 (stereo not given),< 5.15,< 5.15,
COC(=O)c1ccc(OCc2ccc3oc(=O)c(-c4ccccc4)nc3c2)cc1,< 5.85,< 5.85,
Cc1sc2[nH]c(=O)oc(=O)c2c1C,< 3.70,4.52,
COc1cc2ccc(CC(=O)O)cc2cc1OC,,,inactive
Clc1ccc(C(c2ccccc2Cl)C(Cl)Cl)cc1 (stereo not given),< 3.70,4.21,
COc1cc(CC(C)=O)cc(OC)c1,< 3.70,4.02,
Cc1ccc(S(=O)(=O)S/C(=N\c2ccccn2)Nc2ccccn2)cc1,< 3.49,4.08,
Clc1ccc(C2SCc3nc4ccccc4n32)cc1Cl (stereo not given),,,inactive
CCN(CC)C(=S)SS(=O)(=O)c1cccc(N)c1,< 3.70,< 3.70,
CCOC(=O)C(CCCC(C(=O)OCC)C(=O)OCC)C(=O)OCC,< 3.70,< 3.70,
CCOC(=O)CCC(NC(=O)C(N)c1ccc([N+](=O)[O-])cc1)C(=O)NC(CCC(=O)OCC)C(=O)OCC (stereo not given),< 3.70,< 3.70,
CC1C(c2ccc(Cl)cc2)c2cc3c(cc2OC1N1CCOCC1)OCO3 (stereo not given),< 4.00,4.67,
COC(=O)NC[C@@H]1OCc2cc3c(cc2[C@]12CC=CCC2)OCO3,< 3.97,5.16,
c1ccc(C2=C(c3ccccc3)CSSC2)cc1,< 4.16,< 4.16,
c1csc(-c2cc(-c3cccs3)c(-c3cccs3)s2)c1,< 3.70,4.41,
Cc1cccc(C)c1NC(=O)C(=O)C1C(=O)N(c2ccccc2)N=C1N (stereo not given),< 3.15,< 3.15,
COc1ccc2c(c1)C(=O)C1CCC(=O)N1C2c1ccc2c(c1)OCO2 (stereo not given),< 3.70,5.43,
Cn1c(=O)c2nccnc2n(C)c1=O,3.75,< 3.70,
CC1=C[P+](Cc2ccccc2)(c2ccccc2)CC1 (stereo not given),,3.73 and 4.14,
N#C/C(=C\c1ccccc1)S(=O)(=O)/C(C#N)=C/c1ccc(O)c(O)c1,< 3.70,4.53,
C[C@H](CCC(=O)O)[C@H]1CC[C@H]2[C@@H]3C(=O)C[C@@H]4C[C@H](O)CC[C@]4(C)[C@H]3C[C@H](O)[C@]12C,< 3.70,< 3.70,
